The results in this text go back to BindingDB's records for doi:10.1080/14756360701342532 (Chinese Academy of Medical Sciences, 2008).

The assay deals with T1, Seed linoleate 13S-lipoxygenase-1 (Glycine max, UniProt P08170).
T1 sequence (P08170 whole entry): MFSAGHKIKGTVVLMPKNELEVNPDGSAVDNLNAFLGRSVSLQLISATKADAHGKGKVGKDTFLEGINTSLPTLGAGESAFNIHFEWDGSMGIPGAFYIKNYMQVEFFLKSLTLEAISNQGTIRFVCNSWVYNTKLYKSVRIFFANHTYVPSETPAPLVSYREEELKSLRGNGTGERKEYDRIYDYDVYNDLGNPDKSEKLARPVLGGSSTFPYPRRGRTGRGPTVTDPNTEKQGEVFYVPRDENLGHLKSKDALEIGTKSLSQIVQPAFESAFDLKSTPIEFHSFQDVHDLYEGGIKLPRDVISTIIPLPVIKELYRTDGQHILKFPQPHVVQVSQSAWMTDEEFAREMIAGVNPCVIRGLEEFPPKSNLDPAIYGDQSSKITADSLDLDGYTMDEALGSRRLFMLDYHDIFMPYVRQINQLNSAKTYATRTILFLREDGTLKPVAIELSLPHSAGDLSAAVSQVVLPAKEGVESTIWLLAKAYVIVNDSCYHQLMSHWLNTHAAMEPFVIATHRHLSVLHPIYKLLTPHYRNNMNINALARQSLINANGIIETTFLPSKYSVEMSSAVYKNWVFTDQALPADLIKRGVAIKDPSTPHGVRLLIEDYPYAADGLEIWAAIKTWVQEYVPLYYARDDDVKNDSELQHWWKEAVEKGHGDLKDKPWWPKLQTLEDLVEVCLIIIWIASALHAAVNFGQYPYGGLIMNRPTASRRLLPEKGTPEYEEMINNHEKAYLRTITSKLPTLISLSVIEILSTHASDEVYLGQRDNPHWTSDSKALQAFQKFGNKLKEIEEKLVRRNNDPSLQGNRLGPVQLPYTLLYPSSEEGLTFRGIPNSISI
Briefly: Inhibition Assay. Particulars: pH 8; 25 °C. As to the method:
Lipoxygenase inhibiting activity was measured by slightly modifying the spectrometric method. Lipoxygenase type I-B and linoleic acid were purchased from Sigma.
For `COC(=O)[C@@H]1C2C=C[C@@]3(O)CO[C@@H](O[C@@H]1O)C23` (stereo partly drawn) [Beta-gardiol, 5], half-maximal inhibition (IC50) was put at 47.3 µM.

Regarding `COc1ccc(/C=C/C(=O)OC2C(C)OC(O[C@@H]3C=C(CO)C4C3C=CO[C@H]4OC3OC(CO)C(O)C(O)C3O)C(OC(C)=O)C2O)cc1` (some centres not stated) [Buddlejoside A2, 6], the IC50 (usually the midpoint of a concentration-inhibition curve) worked out at 41.9 µM.

In turn, `COc1ccc(/C=C/C(=O)OC2C(O)C(C)OC(O[C@H]3C4C=CO[C@@H](OC5OC(CO)C(O)C(O)C5O)C4[C@@]4(CO)O[C@@H]34)C2OC(C)=O)cc1` (some centres not stated) [Buddlejoside A5, 7] gave an IC50 of 40.4 µM.

In turn, `O=C(OCC1=C[C@@H](O)[C@@H]2C=CO[C@@H](OC3OC(CO)C(O)C(O)C3O)[C@H]12)c1ccc(O)cc1` (some centres not stated) [Buddlejoside A, 1] returned an IC50 of 44.3 µM.

Regarding `O=C(OCC1=C[C@@H](O)[C@@H]2C=CO[C@@H](OC3OC(CO)C(O)C(O)C3O)[C@H]12)c1ccc(O)c(O)c1` (some centres not stated) [Buddlejoside B, 2], the IC50 turned out to be 39.7 µM. This IC50 and that of the compound before are within 1.5-fold of each other.

`CC(C)CC(=O)OCC1=C[C@@H](O)[C@@H]2C=CC[C@H](OC3OC(CO)C(O)C(O)C3O)[C@H]12` (some centres not stated) [Buddlejoside C, 3] yielded an IC50 of 52.5 µM. This IC50 and that of the compound before are within 1.5-fold of each other.

For the compound `COC(=O)C1=CO[C@@H](O)C2C(CO)C=CC12` (some centres not stated) [Genipin, 4], it took 49.6 µM to reach half-maximal inhibition (IC50).
